Assay results published in patent publication US8247211B2, “Glycopeptide antibiotics” (American Cyanamid Company, priority 2001, dated 2012).
≈ marks a conversion by molar mass, not a printed value.

Experiments:
Assay in all cases: In vitro antibacterial evaluation: minimum inhibitory concentration (MIC), broth dilution method
Format in all cases: cell-based
Escherichia coli = tested on: Escherichia coli
Procedure, shortened: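 Values are minimum inhibitory concentrations, meaning the smallest antibiotic concentration that stops growth of the organism. They come from broth dilution in Muller-Hinton II […] per NCCLS guidance (M7-A2), using 5×10^5 CFU/mL and concentrations from 64 to 0.06 μg/mL.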

Staphylococcus sp. = conditions: broth dilution, 18 hours at 35° C.
Procedure, shortened: (§1)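 MIC by broth dilution in Mueller-Hinton II medium following NCCLS M7-A2. Inoculum was 5×10^5 CFU/mL and antibiotic was tested over 64-0.06 μg/mL. Gram-positive panel included clinical isolates resistant to methicillin, penicillin and/or vancomycin.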

Enterococcus sp. = tested on: Enterococcus sp.
Procedure, shortened: as §1

Streptococcus sp. = tested on: Streptococcus sp.
Procedure, shortened: as §1

[1] = broth dilution, inoculum 5×10^5 CFU/mL, 18 hours at 35° C.

CC(c1ccccc1)C1NC(=O)CNC(=O)C(CO)NC(=O)C(C(O)C2CNC(=N)N2C2OC(CO)C(O)C(O)C2O)NC(=O)C(C(O)C2CNC(=N)N2)NC(=O)C(Cc2ccc(OC3OC(CO)C(OC4OC5COC(c6ccc(-c7ccsc7)cc6)OC5C(O)C4O)C(O)C3O)cc2)NC1=O (stereo not drawn) [Example 164, Cyclo[glycyl-β-methylphenylalanyl-O-[4-O-[4,6-O-[4-(3-thienyl)benzylidene]hexopyranosyl]-hexopyranosyl]tyrosyl-3-(2-iminoimidazolidin-4-yl)seryl-3-(3-hexopyranosyl-2-iminoimidazolidin-4-yl)serylseryl]]
MIC Escherichia coli (ATCC 25922) (Escherichia coli; strain ATCC 25922): >64 mg/L | MIC Escherichia coli (GC 4559) (Escherichia coli; strain GC 4559): 64 mg/L (≈ 43.7 µM) | MIC Escherichi coli (GC 4560) (Escherichia coli; strain GC 4560): 4 mg/L (≈ 2.73 µM) | MIC Coagulase Negative Staphylococcus (GC 4547) (Staphylococcus sp.; 5×10^5 CFU/mL): 4 mg/L (≈ 2.73 µM) | MIC Coagulase Negative Staphylococcus (GC 4548) (Staphylococcus sp.; 5×10^5 CFU/mL): 1 mg/L (≈ 0.682 µM) | MIC Coagulase Negative Staphylococcus (GC 4549) (Staphylococcus sp.; 5×10^5 CFU/mL): 0.5 mg/L (≈ 0.341 µM) | MIC Coagulase Negative Staphylococcus (GC 4551) (Staphylococcus sp.; 5×10^5 CFU/mL): 4 mg/L (≈ 2.73 µM) | MIC Coagulase Negative Staphylococcus (GC 6257) (Staphylococcus sp.; 5×10^5 CFU/mL): 1 mg/L (≈ 0.682 µM) | MIC Staphylococcus aureus (ATCC 29213) (Staphylococcus sp.; 5×10^5 CFU/mL): 8 mg/L (≈ 5.46 µM) | MIC Staphylococcus aureus (GC 1131) (Staphylococcus sp.; 5×10^5 CFU/mL): 4 mg/L (≈ 2.73 µM) | MIC Staphylococcus aureus (GC 3051) (Staphylococcus sp.; 5×10^5 CFU/mL): 16 mg/L (≈ 10.9 µM) | MIC Staphylococcus aureus (GC 3053) (Staphylococcus sp.; 5×10^5 CFU/mL): 8 mg/L (≈ 5.46 µM) | MIC Staphylococcus aureus (GC 4541) (Staphylococcus sp.; 5×10^5 CFU/mL): 8 mg/L (≈ 5.46 µM) | MIC Staphylococcus aureus (GC 4542) (Staphylococcus sp.; 5×10^5 CFU/mL): 16 mg/L (≈ 10.9 µM) | MIC Staphylococcus aureus (GC 4544) (Staphylococcus sp.; 5×10^5 CFU/mL): 8 mg/L (≈ 5.46 µM) | MIC Staphylococcus aureus (GC 4545) (Staphylococcus sp.; 5×10^5 CFU/mL): 4 mg/L (≈ 2.73 µM) | MIC Staphylococcus aureus-SMITH (GC 4543) (Staphylococcus sp.; 5×10^5 CFU/mL): 4 mg/L (≈ 2.73 µM) | MIC Staphylococcus haemolyticus (GC 4546) (Staphylococcus sp.; 5×10^5 CFU/mL): 4 mg/L (≈ 2.73 µM) | MIC Staphylococcus aureus (ATCC 29213) (Staphylococcus sp.; strain ATCC 29213): 8 mg/L (≈ 5.46 µM) | MIC Staphylococcus aureus (GC 1131) (Staphylococcus sp.; strain GC 1131): 4 mg/L (≈ 2.73 µM) | MIC Staphylococcus aureus (GC 3051) (Staphylococcus sp.; strain GC 3051): 16 mg/L (≈ 10.9 µM) | MIC Staphylococcus aureus (GC 3053) (Staphylococcus sp.; strain GC 3053): 8 mg/L (≈ 5.46 µM) | MIC Staphylococcus aureus (GC 4541) (Staphylococcus sp.; strain GC 4541): 8 mg/L (≈ 5.46 µM) | MIC Staphylococcus aureus (GC 4542) (Staphylococcus sp.; strain GC 4542): 16 mg/L (≈ 10.9 µM) | MIC Staphylococcus aureus-SMITH (GC 4543) (Staphylococcus sp.; strain GC 4543): 4 mg/L (≈ 2.73 µM) | MIC Staphylococcus aureus (GC 4544) (Staphylococcus sp.; strain GC 4544): 8 mg/L (≈ 5.46 µM) | MIC Staphylococcus aureus (GC 4545) (Staphylococcus sp.; strain GC 4545): 4 mg/L (≈ 2.73 µM) | MIC Staphylococcus haemolyticus (GC 4546) (Staphylococcus sp.; strain GC 4546): 4 mg/L (≈ 2.73 µM) | MIC Coagulase Negative Staphylococcus (GC 4547) (Staphylococcus sp.; strain GC 4547): 4 mg/L (≈ 2.73 µM) | MIC Coagulase Negative Staphylococcus (GC 4548) (Staphylococcus sp.; strain GC 4548): 1 mg/L (≈ 0.682 µM) | MIC Coagulase Negative Staphylococcus (GC 4549) (Staphylococcus sp.; strain GC 4549): 0.5 mg/L (≈ 0.341 µM) | MIC Coagulase Negative Staphylococcus (GC 4551) (Staphylococcus sp.; strain GC 4551): 4 mg/L (≈ 2.73 µM) | MIC Coagulase Negative Staphylococcus (GC 6257) (Staphylococcus sp.; strain GC 6257): 1 mg/L (≈ 0.682 µM) | MIC Enterococcus avium (GC 4558) (Enterococcus sp.; [1]): 8 mg/L (≈ 5.46 µM) | MIC Enterococcus faecalis (ATCC 29212) (Enterococcus sp.; [1]): 8 mg/L (≈ 5.46 µM) | MIC Enterococcus faecalis (GC 2242) (Enterococcus sp.; [1]): 4 mg/L (≈ 2.73 µM) | MIC Enterococcus faecalis (GC 2691) (Enterococcus sp.; [1]): 8 mg/L (≈ 5.46 µM) | MIC Enterococcus faecalis (GC 3059) (Enterococcus sp.; [1]): 8 mg/L (≈ 5.46 µM) | MIC Enterococcus faecalis (GC 4552) (Enterococcus sp.; [1]): 8 mg/L (≈ 5.46 µM) | MIC Enterococcus faecalis (GC 4553) (Enterococcus sp.; [1]): 8 mg/L (≈ 5.46 µM) | MIC Enterococcus faecalis (GC 4554) (Enterococcus sp.; [1]): 16 mg/L (≈ 10.9 µM) | MIC Enterococcus faecalis (GC 6189) (Enterococcus sp.; [1]): 4 mg/L (≈ 2.73 µM) | MIC Enterococcus faecium (GC 2243) (Enterococcus sp.; [1]): 8 mg/L (≈ 5.46 µM) | MIC Enterococcus faecium (GC 4556) (Enterococcus sp.; [1]): 8 mg/L (≈ 5.46 µM) | MIC Enterococcus faecium (GC 4557) (Enterococcus sp.; [1]): 4 mg/L (≈ 2.73 µM) | MIC Enterococcus faecalis (ATCC 29212) (Enterococcus sp.; strain ATCC 29212): 8 mg/L (≈ 5.46 µM) | MIC Enterococcus faecalis (GC 2242) (Enterococcus sp.; strain GC 2242): 4 mg/L (≈ 2.73 µM) | MIC Enterococcus faecium (GC 2243) (Enterococcus sp.; strain GC 2243): 8 mg/L (≈ 5.46 µM) | MIC Enterococcus faecalis (GC 2691) (Enterococcus sp.; strain GC 2691): 8 mg/L (≈ 5.46 µM) | MIC Enterococcus faecalis (GC 3059) (Enterococcus sp.; strain GC 3059): 8 mg/L (≈ 5.46 µM) | MIC Enterococcus faecalis (GC 4552) (Enterococcus sp.; strain GC 4552): 8 mg/L (≈ 5.46 µM) | MIC Enterococcus faecalis (GC 4553) (Enterococcus sp.; strain GC 4553): 8 mg/L (≈ 5.46 µM) | MIC Enterococcus faecalis (GC 4554) (Enterococcus sp.; strain GC 4554): 16 mg/L (≈ 10.9 µM) | MIC Enterococcus faecium (GC 4556) (Enterococcus sp.; strain GC 4556): 8 mg/L (≈ 5.46 µM) | MIC Enterococcus faecium (GC 4557) (Enterococcus sp.; strain GC 4557): 4 mg/L (≈ 2.73 µM) | MIC Enterococcus avium (GC 4558) (Enterococcus sp.; strain GC 4558): 8 mg/L (≈ 5.46 µM) | MIC Enterococcus faecalis (GC 6189) (Enterococcus sp.; strain GC 6189): 4 mg/L (≈ 2.73 µM) | MIC Streptococcus agalactiae (GC 4564) (Streptococcus sp.; [1]): 0.12 mg/L (≈ 0.0819 µM) | MIC Streptococcus pneumoniae (ATCC 6301) (Streptococcus sp.; [1]): <0.06 mg/L | MIC Streptococcus pneumoniae (GC 1894) (Streptococcus sp.; [1]): <0.06 mg/L | MIC Streptococcus pneumoniae (GC 4565) (Streptococcus sp.; [1]): <0.06 mg/L | MIC Streptococcus pyogenes (GC 4563) (Streptococcus sp.; [1]): 0.12 mg/L (≈ 0.0819 µM) | MIC Streptococcus pneumoniae (ATCC 6301) (Streptococcus sp.; strain ATCC 6301): <0.06 mg/L | MIC Streptococcus pneumoniae (GC 1894) (Streptococcus sp.; strain GC 1894): <0.06 mg/L | MIC Streptococcus pyogenes (GC 4563) (Streptococcus sp.; strain GC 4563): 0.12 mg/L (≈ 0.0819 µM) | MIC Streptococcus agalactiae (GC 4564) (Streptococcus sp.; strain GC 4564): 0.12 mg/L (≈ 0.0819 µM) | MIC Streptococcus pneumoniae (GC 4565) (Streptococcus sp.; strain GC 4565): <0.06 mg/L
